Legend:
Assay type in all cases: functional
[1] = Cytotoxicity against human BRO cells by MTT assay
[2] = system: MDA-MB-231; experiment: Cytotoxicity against human MDA-MB-231 cells by MTT assay
[3] = system: SK-OV-3; experiment: Cytotoxicity against human SKOV3 cells by MTT assay
[4] = system: PC-3; experiment: Cytotoxicity against human PC3 cells by MTT assay
[5] = system: HL-60; experiment: Cytotoxicity against human HL60 cells by MTT assay
[6] = system: K562; experiment: Cytotoxicity against human K562 cells by MTT assay
[7] = system: HT-29; experiment: Cytotoxicity against human HT-29 cells by MTT assay

Structure (SMILES)	INH [1] [µM]	INH [2] [µM]	INH [3] [µM]	INH [4] [µM]	INH [5] [µM]	INH [6] [µM]	INH [7] [µM]
CC(=O)O[C@@H]1C(=O)N(c2cc3c4ccccc4ccc3c3ccccc23)[C@H]1c1ccccc1	6.1	0.8	6.8	1.4	0.7	1.1	0.7
CC(=O)O[C@H]1C(=O)N(c2cc3c4ccccc4ccc3c3ccccc23)[C@@H]1c1ccccc1	22	8.5	6.1	15.5	5.4	6	8.3
CC(=O)O[C@H]1C(=O)N(c2cc3c4ccccc4ccc3c3ccccc23)[C@@H]1c1ccccc1 (racemic)	15.7	8.7	8.9	11.1	0.7	1.1	2
